Laboratory results as given in patent publication US20260226493A1, “HERBICIDE RESISTANT PLANTS” (SYNGENTA CROP PROTECTION AG, priority 2023, published 2026).

Experiments:
Experiment in all cases: BIO3-BIO1 mutant enzyme activity in the presence of herbicide, percentage inhibition (fluorometric DAPA assay)
Assay type in all cases: biochemical
Conditions in all cases: read-out: percentage inhibition
[1] = target: T1, Arabidopsis thaliana BIO3-BIO1 (BioDA) mutants (Arabidopsis thaliana, UniProt B0F481, S390C)
T1 construct: with the predicted N-terminal mitochondrial transit peptide removed; 6xHis-tag (N); thrombin cleavage site (N); made in house; host or cells: E. coli BL21 (DE3) bioA
T1 sequence (B0F481 23-833 S390C): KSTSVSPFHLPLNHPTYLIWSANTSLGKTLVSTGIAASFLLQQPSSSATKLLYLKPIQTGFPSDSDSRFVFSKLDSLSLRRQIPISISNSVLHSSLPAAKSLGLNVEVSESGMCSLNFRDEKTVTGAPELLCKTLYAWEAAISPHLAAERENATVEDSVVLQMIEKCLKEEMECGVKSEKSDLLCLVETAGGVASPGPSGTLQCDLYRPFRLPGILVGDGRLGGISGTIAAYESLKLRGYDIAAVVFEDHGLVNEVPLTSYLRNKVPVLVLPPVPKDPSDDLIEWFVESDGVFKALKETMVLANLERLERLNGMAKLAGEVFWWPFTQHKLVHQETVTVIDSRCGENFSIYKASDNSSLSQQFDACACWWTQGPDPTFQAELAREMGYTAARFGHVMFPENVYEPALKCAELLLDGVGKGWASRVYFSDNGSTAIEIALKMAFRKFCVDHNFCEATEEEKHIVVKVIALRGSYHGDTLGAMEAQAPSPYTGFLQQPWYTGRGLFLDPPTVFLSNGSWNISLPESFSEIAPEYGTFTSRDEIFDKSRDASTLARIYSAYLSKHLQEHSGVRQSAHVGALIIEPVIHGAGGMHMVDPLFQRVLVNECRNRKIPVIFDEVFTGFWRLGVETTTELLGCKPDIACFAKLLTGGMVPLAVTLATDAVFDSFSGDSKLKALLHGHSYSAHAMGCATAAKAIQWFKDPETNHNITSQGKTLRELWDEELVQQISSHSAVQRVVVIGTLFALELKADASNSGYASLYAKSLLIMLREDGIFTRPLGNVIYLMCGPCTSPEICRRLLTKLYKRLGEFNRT
In short: (§1)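 Percentage inhibition compares activity at one of three herbicide concentrations against DMSO, from o-phthalaldehyde-derivatised DAPA fluorescence (ex 410, em 470 nm). Purified N-His BIO3-BIO1 variants (50 nM, E. coli-expressed) saw herbicide 10 min at 20 °C in pH 8.6 EPPS buffer, then 20 μM KAPA plus 100 μM spermidine for 75 min at 20 °C.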

[2] = target: T2, Arabidopsis thaliana BIO3-BIO1 (BioDA) mutants (Arabidopsis thaliana, UniProt B0F481, F348I)
T2 construct: with the predicted N-terminal mitochondrial transit peptide removed; 6xHis-tag (N); thrombin cleavage site (N); made in house; host or cells: E. coli BL21 (DE3) bioA
T2 sequence (B0F481 23-833 F348I): as the sequence (B0F481 23-833 S390C) above, with F326I, C368S counted along it
In short: as §1

[3] = target: T3, Arabidopsis thaliana BIO3-BIO1 (BioDA) mutants (Arabidopsis thaliana, UniProt B0F481, S704P)
T3 construct: with the predicted N-terminal mitochondrial transit peptide removed; 6xHis-tag (N); thrombin cleavage site (N); made in house; host or cells: E. coli BL21 (DE3) bioA
T3 sequence (B0F481 23-833 S704P): as the sequence (B0F481 23-833 S390C) above, with C368S, S682P counted along it
In short: as §1

[4] = target: T4, Arabidopsis thaliana BIO3-BIO1 (BioDA) mutants (Arabidopsis thaliana, UniProt B0F481, Y511M)
T4 construct: with the predicted N-terminal mitochondrial transit peptide removed; 6xHis-tag (N); thrombin cleavage site (N); made in house; host or cells: E. coli BL21 (DE3) bioA
T4 sequence (B0F481 23-833 Y511M): as the sequence (B0F481 23-833 S390C) above, with C368S, Y489M counted along it
In short: as §1

[5] = target: T5, Arabidopsis thaliana BIO3-BIO1 (BioDA) mutants (Arabidopsis thaliana, UniProt B0F481, V354A)
T5 construct: with the predicted N-terminal mitochondrial transit peptide removed; 6xHis-tag (N); thrombin cleavage site (N); made in house; host or cells: E. coli BL21 (DE3) bioA
T5 sequence (B0F481 23-833 V354A): as the sequence (B0F481 23-833 S390C) above, with V332A, C368S counted along it
In short: as §1

[6] = target: T6, Arabidopsis thaliana BIO3-BIO1 (BioDA) mutants (Arabidopsis thaliana, UniProt B0F481, G513P)
T6 construct: with the predicted N-terminal mitochondrial transit peptide removed; 6xHis-tag (N); thrombin cleavage site (N); made in house; host or cells: E. coli BL21 (DE3) bioA
T6 sequence (B0F481 23-833 G513P): as the sequence (B0F481 23-833 S390C) above, with C368S, G491P counted along it
In short: as §1

[7] = target: T7, Arabidopsis thaliana BIO3-BIO1 (BioDA) mutants (Arabidopsis thaliana, UniProt B0F481, P510V)
T7 construct: with the predicted N-terminal mitochondrial transit peptide removed; 6xHis-tag (N); thrombin cleavage site (N); made in house; host or cells: E. coli BL21 (DE3) bioA
T7 sequence (B0F481 23-833 P510V): as the sequence (B0F481 23-833 S390C) above, with C368S, P488V counted along it
In short: as §1

[8] = target: T8, Arabidopsis thaliana BIO3-BIO1 (BioDA) mutants (Arabidopsis thaliana, UniProt B0F481, F348V)
T8 construct: with the predicted N-terminal mitochondrial transit peptide removed; 6xHis-tag (N); thrombin cleavage site (N); made in house; host or cells: E. coli BL21 (DE3) bioA
T8 sequence (B0F481 23-833 F348V): as the sequence (B0F481 23-833 S390C) above, with F326V, C368S counted along it
In short: as §1

[9] = target: T9, Arabidopsis thaliana BIO3-BIO1 (BioDA) mutants (Arabidopsis thaliana, UniProt B0F481, T512W)
T9 construct: with the predicted N-terminal mitochondrial transit peptide removed; 6xHis-tag (N); thrombin cleavage site (N); made in house; host or cells: E. coli BL21 (DE3) bioA
T9 sequence (B0F481 23-833 T512W): as the sequence (B0F481 23-833 S390C) above, with C368S, T490W counted along it
In short: as §1

[10] = target: T10, Arabidopsis thaliana BIO3-BIO1 (BioDA) mutants (Arabidopsis thaliana, UniProt B0F481, L786S)
T10 construct: with the predicted N-terminal mitochondrial transit peptide removed; 6xHis-tag (N); thrombin cleavage site (N); made in house; host or cells: E. coli BL21 (DE3) bioA
T10 sequence (B0F481 23-833 L786S): as the sequence (B0F481 23-833 S390C) above, with C368S, L764S counted along it
In short: as §1

[11] = target: T11, Arabidopsis thaliana BIO3-BIO1 (BioDA) mutants (Arabidopsis thaliana, UniProt B0F481, Q350S)
T11 construct: with the predicted N-terminal mitochondrial transit peptide removed; 6xHis-tag (N); thrombin cleavage site (N); made in house; host or cells: E. coli BL21 (DE3) bioA
T11 sequence (B0F481 23-833 Q350S): as the sequence (B0F481 23-833 S390C) above, with Q328S, C368S counted along it
In short: as §1

[12] = target: T12, Arabidopsis thaliana BIO3-BIO1 (BioDA) mutants (Arabidopsis thaliana, UniProt B0F481, S509D)
T12 construct: with the predicted N-terminal mitochondrial transit peptide removed; 6xHis-tag (N); thrombin cleavage site (N); made in house; host or cells: E. coli BL21 (DE3) bioA
T12 sequence (B0F481 23-833 S509D): as the sequence (B0F481 23-833 S390C) above, with C368S, S487D counted along it
In short: as §1

| SMILES | inhibition at 1 µM [1] | inhibition at 1 µM [2] | inhibition at 1 µM [3] | inhibition at 1 µM [4] | inhibition at 1 µM [5] | inhibition at 1 µM [6] | inhibition at 1 µM [7] | inhibition at 1 µM [8] | inhibition at 1 µM [9] | inhibition at 1 µM [10] | inhibition at 1 µM [11] | inhibition at 1 µM [12] | inhibition at 0.2 µM [1] | inhibition at 5 µM [1] | inhibition at 0.2 µM [2] | inhibition at 5 µM [2] | inhibition at 0.2 µM [3] | inhibition at 5 µM [3] | inhibition at 0.2 µM [4] | inhibition at 5 µM [4] | other results |
| --- | --- | --- | --- | --- | --- | --- | --- | --- | --- | --- | --- | --- | --- | --- | --- | --- | --- | --- | --- | --- | --- |
| CCOC(=O)c1nn(-c2ccc3c(c2)OC(F)(F)C(F)(F)O3)c2cccc(C(C)=O)c2c1=O [Compound A, ethyl 5-acetyl-4-oxo-1-(2,2,3,3-tetrafluoro-1,4-benzodioxin-6-yl)cinnoline-3-carboxylate] | 21% | 7% | 56% | 59% | 9% | 63% | 1% | 4% | 0% | 80% | 42% | 9% | – | – | – | – | – | – | – | – | – |
| CCn1c(-c2ccc(Cl)c(Cl)c2)c(C(=O)O)c(=O)c2cc(F)ccc21 [Compound M, 2-(3,4-dichlorophenyl)-1-ethyl-6-fluoro-4-oxo-quinoline-3-carboxylic acid] | 44% | 6% | 16% | 83% | 13% | 83% | 0% | 0% | 55% | 81% | 22% | 80% | 16% | 74% | 0% | 25% | 0% | 47% | 41% | 97% | inhibition at 0.2 µM [5]: 6%; inhibition at 5 µM [5]: 65%; inhibition at 0.2 µM [6]: 52%; inhibition at 5 µM [6]: 97%; inhibition at 0.2 µM [7]: 0%; inhibition at 5 µM [7]: 62%; inhibition at 0.2 µM [8]: 0%; inhibition at 5 µM [8]: 0%; inhibition at 0.2 µM [9]: 33%; inhibition at 5 µM [9]: 83%; inhibition at 0.2 µM [10]: 33%; inhibition at 5 µM [10]: 97%; inhibition at 0.2 µM [11]: 4%; inhibition at 5 µM [11]: 44%; inhibition at 0.2 µM [12]: 48%; inhibition at 5 µM [12]: 98% |
| CCn1c(Cn2ccc(C(F)(F)F)n2)cc(=O)c(C(=O)O)c1-c1ccc(Cl)c(Cl)c1 [Compound L, 2-(3,4-dichlorophenyl)-1-ethyl-4-oxo-6-[[3-(trifluoromethyl)pyrazol-1-yl]methyl]pyridine-3-carboxylic acid] | – | – | – | – | – | – | – | – | – | – | – | – | – | – | – | – | – | – | – | – | inhibition at 0.01 µM [2]: 1%; inhibition at 0.075 µM [2]: 3%; inhibition at 0.5 µM [2]: 14%; inhibition at 0.01 µM [6]: 5%; inhibition at 0.075 µM [6]: 46%; inhibition at 0.5 µM [6]: 86%; inhibition at 0.01 µM [7]: 0%; inhibition at 0.075 µM [7]: 0%; inhibition at 0.5 µM [7]: 52%; inhibition at 0.01 µM [8]: 10%; inhibition at 0.075 µM [8]: 15%; inhibition at 0.5 µM [8]: 11%; inhibition at 0.01 µM [10]: 11%; inhibition at 0.075 µM [10]: 31%; inhibition at 0.5 µM [10]: 93%; inhibition at 0.01 µM [11]: 11%; inhibition at 0.075 µM [11]: 38%; inhibition at 0.5 µM [11]: 59% |
| CCn1c(C)c(-c2ccc(F)cc2F)c(=O)c(C(=O)O)c1-c1ccc(Cl)c(Cl)c1 [Compound C, 2-(3,4-dichlorophenyl)-5-(2,4-difluorophenyl)-1-ethyl-6-methyl-4-oxo-pyridine-3-carboxylic acid] | 55% | 11% | 23% | 99% | 26% | 95% | 21% | 0% | 83% | 84% | 35% | 91% | 27% | 83% | 6% | 49% | 1% | 60% | 76% | 100% | inhibition at 0.2 µM [5]: 0%; inhibition at 5 µM [5]: 75%; inhibition at 0.2 µM [6]: 52%; inhibition at 5 µM [6]: 99%; inhibition at 0.2 µM [7]: 0%; inhibition at 5 µM [7]: 79%; inhibition at 0.2 µM [8]: 0%; inhibition at 5 µM [8]: 1%; inhibition at 0.2 µM [9]: 50%; inhibition at 5 µM [9]: 95%; inhibition at 0.2 µM [10]: 26%; inhibition at 5 µM [10]: 98%; inhibition at 0.2 µM [11]: 2%; inhibition at 5 µM [11]: 66%; inhibition at 0.2 µM [12]: 59%; inhibition at 5 µM [12]: 103% |
